Test [1] relates to colonic mucus hydrogel. Briefly: Ex vivo penetration or exclusion of probes and polymers in adherent colonic mucus hydrogel. The arrangement: species or system mice. The note with it: washed explant, incubated 1-2 h at 4° C.
For test [2], the system named is colonic mucus hydrogel. The experiment in a line: Ex vivo polymer-induced compression of washed colonic mucus hydrogel (1 μm microparticle method). Also on record: species or system mice. The note with it: 500 mM acetate. The source says:
Each mouse was euthanized; the colon was removed and immediately flushed gently with ice-cold 1× PBS, and placed ˜1 cm long segments of the mid-colon in ice-cold PBS. […] The hydrogel thickness was detected through imaging of the washed tissue. […] This ensured that the microparticles deposited onto the mucus hydrogel surface. both the epithelium and the deposited microparticles were simultaneously imaged using confocal or two-photon reflectance microscopy. After measuring the initial washed mucus thickness, ˜0.2-2mL of the test polymer solution was gently deposited onto the exposed luminal surface and then collected the same 3D stacks at the same xy fields of view To measure the “percent compression”, or the overall percentage change in the thickness, of the colonic mucus after exposure to the polymer solution, the thickness was measured before and after exposure to the solution at the same five xy positions, using the distance between the epithelial surface and the deposited microparticles in the 3D stacks. To calculate the percentage compression, the percentage change in the thickness measured was calculated, as well as the measurement uncertainty (using the optical slice thickness as the experimental uncertainty in the measured thickness), at each of these five xy positions. The percentage compression was calculated as the mean of these five measured values. […]

Results on three compounds are retold here after patent US20170189444A1, “POLYMERIC COMPOSITIONS AND RELATED SYSTEMS AND METHODS FOR REGULATING BIOLOGICAL HYDROGELS” (CALIFORNIA INSTITUTE OF TECHNOLOGY, priority 2016, published 2017).

Turning to “Methoxyl polyethylene glycol-FITC [mPEG-FITC 200k]”, the “penetration into or exclusion from adherent mucus hydrogel” value in test [1] is “Penetration of mucus”; in test [1] (listed as Fluorescent PEG 200 kDa), “penetrate the hydrogel”.

On to “FITC-dextran [fluorescent dextran 2 MDa]”, for which, in test [1], the “penetration into or exclusion from adherent mucus hydrogel” value was “penetrate the hydrogel”.

`CC(=O)O` [acetate]: in test [2], the mucus compression entry is given as “≈ 10%”.
